Assays:
human and rat GPR-14 = assay: Radioligand binding, [125I] h-U-II on HEK-293 cell membranes; conditions: radioligand binding assay; species of GPR-14 not given
Procedure: HEK-293 cell membranes containing stable cloned human and rat GPR-14 (20 ug/assay) were incubated with 200 pM [125I] h-U-II (200 Ci/mmol^−1 in the presence of increasing concentrations of test compounds in DMSO (0.1 nM to 10 uM), in a final incubation volume of 200 ul (20 mM Tris-HCl, 5 mM MgCl2). Incubation was done for 30 minutes at room temperature followed by filtration GF/B filters with Brandel cell harvester. ^125I labeled U-II binding was quantitated by gamma counting. Nonspecific binding was defined by ^125I U-II binding in the presence of 100 nM of unlabeled human U-II. Analysis of the data was performed by nonlinear least square fitting.

rat-isolated aorta = conditions: cited from earlier work

SMILES: O=C(NC1CCN(Cc2ccc(OCCN3CCCC3)c3ccccc23)C1)c1ccc(Cl)c(Cl)c1 (centres unmarked) [Example 13]
- Ki (human and rat GPR-14): 360 nM

SMILES: CC(C)[C@H](NC(=O)[C@@H]1CSSC[C@H](NC(=O)[C@H](CC(=O)O)NC(=O)[C@@H]2CCCN2C(=O)[C@@H](NC(=O)[C@@H](N)CCC(=O)O)[C@@H](C)O)C(=O)N[C@@H](Cc2ccccc2)C(=O)N[C@@H](Cc2c[nH]c3ccccc23)C(=O)N[C@@H](CCCCN)C(=O)N[C@@H](Cc2ccc(O)cc2)C(=O)N1)C(=O)O [Human Urotensin-II]
- contractile activity (rat-isolated aorta): most potent contractile agonist identified to date
